Test results from article PMC10353061 (ACS Pharmacology & Translational Science, 2023).

Columns and labels:
[1] = tested on: HCT116 colon cancer cell; conditions: cited from earlier work
[2] = tested on: Wnt/β-catenin signaling pathway; assay: Topflash/Fopflash luciferase report assay in SW480 cells; type: cell-based; conditions: 30 μM
Source text: (§1) We synthesized derivatives 5–10 bearing 5-membered and 6-membered heterocyclic rings at the position 3′ or 4′ of the B phenyl ring. […] SW480 cells show higher Wnt activation compared to HCT116 cells.[28] […] In SW480 cells, compounds 5–10 were in the 1.75%(10)–7.32%(7) range of residual luciferase activity, except 6(28.46%), compared to 3(21.61%); in HCT116 cells, compounds 5–10 were in the 0.37%(7)–5.88%(5) range, compared to 3 (18.75%) (Table 1 and Figure 5).
(§2) Figure 5 Residual luciferase activity (%) by compounds 5–10 and reference compound 3 in SW480 cells (left panel) and HCT116 cells (right panel). Data are represented as the mean ± SD of three independent experiments, each performed in triplicate.
(§3) Briefly, the Topflash plasmid (Beyotime, Zhejiang, China) contains 7 TCF/LEF binding sites, while the Fopflash plasmid (Beyotime, Zhejiang, China) contains 6 mutated TCF/LEF binding sites, which are located in the upstream of the luciferase reporter. SW480 and HCT116 cell lines were cultured in 90% DMEM (HyClone, #SH30243.01) plus 10% fetal bovine serum (Gibco, #10270) and plasmocin (mpp-39-03, InvivoGen), respectively. The Topflash/Fopflash vector and plasmid pTK-renilla together were co-transfected to the cells. […] The Dual-Glo luciferase assay kit (Promega, #E1910) was used to measure the luminescence intensity (Figure 2).

[3] = tested on: Wnt/β-catenin signaling pathway; assay: Topflash/Fopflash luciferase report assay in HCT116 cells; type: cell-based, human; conditions: 30 μM
Source text: as §1, §2, §3

[4] = tested on: HCC1806 cells; assay: Cell proliferation by live-cell imaging (IncuCyte), HCC1806 TNBC cells; type: cell-based; conditions: 40 μM, 72 h
Description: (§4) As TNBC is a highly heterogeneous subgroup, including breast cancers with different molecular and phenotypic traits,[37] effects of compounds 5–10 on cell proliferation were also tested in additional TNBC cell lines, i.e., HCC1806 and HCC1937. As inhibitors of HCC1806 TNBC cells, compounds 5–10 were evaluated in parallel with compounds 3, ICG-001, and iCRT3 (Figures 10 and S12–S19, Supporting Information); as inhibitors of the HCC1937 TNBC cells, 5–10 were compared with 3 and iCRT3 (Figures 10, S20, and S21). Effects on cell proliferation were evaluated as above for the MDA-MB-231 TNBC cells at the latest time point of observation of 72 h.
(§5) Figure 10 Inhibition of MDA-MB-231, HCC1806, and HCC1937 TNBC cell growth by compounds 5–10 and reference compounds 3, […], and iCRT3 at 40 μM. Cell growth inhibition was quantified using the IncuCyte cell-by-cell analysis software, by comparison with the growth of DMSO-treated cells at 72 h, set at 100% (mean ± SD, n = 3, one-way ANOVA, **p ≤ 0.01, ****p ≤ 0.0001).
(§6) Cell proliferation of breast cancer cell lines upon continuous treatment with select compounds was evaluated by the real-time quantitative live-cell imaging system. MDA-MB-231 (1500 cells/well), HCC1806 (2000 cells/well), and HCC1937 (3000 cells/well) were seeded in 96-well plates, treated with increasing doses of selected compounds and images (5 images/well) were acquired every 8 h for 3 days at 10× magnification in an IncuCyte SX5 live-content imaging system (Essen Bioscience) at 37 °C with 5% CO2. Images were analyzed using IncuCyte cell-by-cell analysis software to detect and quantify live cells (phase-contrast). The number of cells at each time point was quantified using IncuCyte cell-by-cell analysis software, and cell growth was evaluated as the normalized ratio between counted cells at each time point normalized to those counted at time 0. Graph drawing and statistical analyses were performed in GraphPad Prism according to the statistical tests described in the figure legends.

[5] = tested on: HCC1937 cells; assay: Cell proliferation by live-cell imaging (IncuCyte), HCC1937 TNBC cells; type: cell-based; conditions: 40 μM, 72 h
Description: as §4, §5, §6

[6] = tested on: MDA-MB-231 cells; assay: Cell proliferation by live-cell imaging (IncuCyte), MDA-MB-231 TNBC cells; type: cell-based; conditions: for effect on MDA-MB-231 cell proliferation: 40 μM, 48 and 72 h
Source text: TNBC represents approximately 10–15% of all breast cancers and is the most aggressive subtype of breast cancer. Patients with TNBC have a poor outcome compared to the other subtypes of breast cancer. In the breast cancer tissue, β-catenin is overexpressed compared to the normal tissue. The overexpression of β-catenin is associated with TNBC and lymph node metastasis. […] There is a quest for the development of new therapies to treat TNBC. […] Effects on cell proliferation of MDA-MB-231 TNBC cells were evaluated by live-time cell imaging using the Incucyte S5 system.
as §5, §6

[7] = tested on: SW620 cells; assay: Inhibition of SW620 cells; type: cell-based; conditions: Homo sapiens, SW-620, in the combination 9 at constant 0.25 μM
[8] = tested on: β-catenin; assay: Wnt reporter assay (TOP/FOP luciferase) in LiCl-treated HCT116 cells; type: cell-based; conditions: Homo sapiens, HCT-116, read-out: IC50, inhibition of β-catenin (luciferase reporter), LiCl 50 mM, 24 h
Description: Compounds 9 and 10 were assayed at increasing 10 and 100 nM and 1 μM concentrations in HCT116 cells transfected with luciferase-based vectors and treated with LiCl (50 mM). TOP TK is a well-established Wnt reporter vector containing eight sequences of Tcf/Lef binding site upstream of the timidine kinase (TK) minimal promoter, driving the expression of firefly luciferase.
Figure 6 HCT116 cells were transfected with luciferase-based vectors and treated with LiCl (50 mM) together with increasing concentrations of compound 9 or 10. Cells were harvested 24 h post-treatment and assayed for luciferase activity. Inhibitions were calculated as the luciferase/renilla ratio of the treated samples vs. the luciferase/renilla ratio of the untreated (control) samples. Data are represented as the mean ± SD of three independent experiments, each performed in triplicate. **p < 0.01, ***p < 0.001, n.s = not significant, as determined by analysis of variance (ANOVA).
Luciferase assays were performed as previously described.[58],[59] Briefly, HCT116 cells were transfected with Topflash reporter (M50 Super 8x TOPFlash, containing 8 repeats of TCF/LEF binding sites) or Fopflash reporter (M51 Super 8x FOPFlash, containing the mutated TCF/LEF binding sites) plasmids using the Dreamfect Gold Transfection Reagent (#DG80500, OZ Biosciences). […]

[9] = tested on: Myc; assay: Myc and β-catenin expression (western blot, qPCR) in LiCl-treated HCT116 cells; type: cell-based, human; conditions: HCT116, LiCl 50 mM, 24 h
Description: (§7) To this end, HCT116 cells were treated for 24 h with 50 mM LiCl and increasing concentrations (10–50–100 μM) of the two compounds.
Figure 7 Top panels. […] Vinculin was used as a loading control. […] Bottom panels. c-Myc mRNA levels were measured by qPCR and normalized to the expression of β-actin mRNA and expressed as fold change relative to the control sample. Results represent the mean ± SD of three independent experiments, each performed in triplicate. **p < 0.01, ***p < 0.001 as determined by ANOVA.
Briefly, total proteins from the cells in each group were subjected to 12% denaturing sodium dodecyl sulfate-polyacrylamide gel electrophoresis (SDS-PAGE). The proteins were then transferred onto a poly(vinylidene fluoride) (PVDF) membrane (Millipore). […] After the membrane was fully washed, it was incubated with secondary antibodies at 37 °C for 45 min goat anti-rabbit IgG H&L (HRP) (ab97051), Abcam, MA. The membrane was washed with Tris-buffered saline/Tween-20 (TBST) 4 times at room temperature for 14 min each time. Next, the samples were exposed and imaged (Sigma-Aldrich Chemical) using the enhanced chemiluminescence (ECL) method (Pierce Biotechnology).

[10] = tested on: Fgf20 and Sal4; assay: Wnt-target gene mRNA levels (qPCR) in LiCl-treated HCT116 cells; type: cell-based, human; conditions: HCT116, LiCl 50 mM, 24 h, 10 μM
Description: as §7
HCT116 was treated with LiCl (50 mM) and 10 μM compound 9 or 10 for 24 h. Fgf20, Sall4 (Wnt-target genes) mRNA levels were measured by qPCR and normalized to the expression of β-actin mRNA. Results are expressed as fold change relative to the control sample and represent the mean ± SD of three independent experiments, each performed in triplicate. *p < 0.05, **p < 0.01, ***p < 0.001 as determined by ANOVA.

[11] = tested on: β-catenin/Tcf-4 interaction; assay: Co-immunoprecipitation of β-catenin and Myc-tagged Tcf-4 in HCT116 cells; type: cell-based, human; conditions: HCT116 transfected with Myc-tagged Tcf-4, LiCl 50 mM, 50 μM, 24 h
Description: Toward this end, we performed a co-immunoprecipitation study in HCT116 cells transfected with Myc-tagged Tcf-4, treated with the two compounds, and immunoprecipitated with Myc antisera.
HCT116 cells were transiently transfected with the Myc-tagged Tcf-4 plasmid and treated with LiCl (50 mM) and 9 (50 μM) or 10 (50 μM) for 24 h. Lysates were immunoprecipitated using Myc-agarose beads and western blot analysis was performed. […] Myc-agarose beads saturated with the Myc-blocking peptide before immunoprecipitation were used as a negative control.
Co-immunoprecipitation assays were performed as previously described.[16],[60] Briefly, 2 × 10^4/cm^2 HCT116 cells were seeded in a 100 mm dish and incubated overnight at 37 °C. Cells were transfected with pcDNA/Myc Tcf-4 (Addgene plasmid #16512; http://n2t.net/addgene:16512; RRID:Addgene_16512)[29] and, after overnight incubation, were starved for 8 h in a medium containing Opti-MEM (#31985070, Thermo Fisher Scientific), FBS 0.5%, pen/strep 1%, NaPyr 1%, NeAA 1%, and then co-treated with 50 mM LiCl and DMSO or 50 μM compound 9 or 50 μM compound […] for 24 h. Cells were collected at the end of the treatments and lysed in a buffer containing 0.5% Triton X-100, 0.5 mM EDTA, and 1 mM DTT. […] Chemioluminescence was detected using WesternBright ECL (#K-12045-D50, Advansta), according to the manufacturer’s protocol.

SMILES	melting point [°C]	% Luciferase Activity SW480 (residual) [2] [%]	% Luciferase Activity HCT116 (residual) [3] [%]	effect on HCC1806 cell growth [4]	effect on HCC1937 cell growth [5]	also measured
COC(=O)c1ccc(NS(=O)(=O)c2ccc(Br)cc2)cc1 [Compound 1]	–	–	–	–	–	IC50, HCT116 colon cancer cell growth [1]: submicromolar
CCOC(=O)c1ccc(NS(=O)(=O)c2ccc(Br)cc2)cc1 [Compound 3, Ethyl 4-((4-bromophenyl)sulfonamido)benzoate, reference compound]	–	21.61	18.75	mild efficacy	mild efficacy	–
O=c1[nH]cc(F)c(=O)[nH]1 [Compound 5-FU, 5-fluorouracil, reference compound]	–	–	–	–	–	EC50 [7]: 103 µM
O=S(=O)(Nc1ccc(-c2ccccn2)cc1)c1ccc(Cl)cc1 [Compound 10, 4-Chloro-N-(4-(pyridin-2-yl)phenyl)benzenesulfonamide]	180 to 182	1.75	4.56	–	–	IC50 [8]: > 1 µM; inhibition of Myc expression ([9]; 10 μM): about 2.5 fold; protein and mRNA levels of Myc ([9]; 10–50–100 μM): significant dose-dependent inhibition; β-catenin protein levels ([9]; 10–50–100 μM): reduced only at the highest dose; mRNA levels of Wnt-target genes Fgf20 and Sal4 [10]: strongly inhibited; association between β-catenin and Tcf-4 (co-immunoprecipitation) [11]: completely abrogated the association
O=C1[C@H](Cc2ccc(O)cc2)N2C(=O)CCN(C(=O)NCc3ccccc3)[C@H]2CN1Cc1cccc2ccccc12 [ICG-001, reference compound]	–	–	–	–	–	reduction of MDA-MB-231 cell viability ([6]; even at the low dose of 0.49 μM): most effective compound

Now from value to molecule, other results behind:

melting point [°C]	SMILES	% Luciferase Activity SW480 (residual) [2] [%]	% Luciferase Activity HCT116 (residual) [3] [%]	effect on HCC1806 cell growth [4]	effect on HCC1937 cell growth [5]	also measured
147 to 150	O=S(=O)(Nc1cccc(-c2ccco2)c1)c1ccc(Br)cc1 [Compound 5, 4-Bromo-N-(3-(furan-2-yl)phenyl)benzenesulfonamide]	4.80	5.88	significant inhibition	significant inhibition	effect on MDA-MB-231 cell proliferation [6]: significant antiproliferative effects
175 to 177	O=S(=O)(Nc1cccc(-c2ccccn2)c1)c1ccc(Br)cc1 [Compound 6, 4-Bromo-N-(3-(pyridin-2-yl)phenyl)benzenesulfonamide]	28.46	5.14	significant inhibition	significant inhibition	effect on MDA-MB-231 cell proliferation [6]: significant antiproliferative effects
166 to 169	O=S(=O)(Nc1cccc(-c2ccccn2)c1)c1ccc(Cl)cc1 [Compound 7, 4-Chloro-N-(3-(pyridin-2-yl)phenyl)benzenesulfonamide]	7.32	0.37	mild inhibitory effect	–	–
163 to 166	O=S(=O)(Nc1ccc(-c2ccco2)cc1)c1ccc(Br)cc1 [Compound 8, 4-Bromo-N-(4-(furan-2-yl)phenyl)benzenesulfonamide]	1.82	5.58	mild inhibitory effect	–	–
